Measurements published in ChEMBL document CHEMBL1142763, “Dibenzodioxocinones--a new class of CETP inhibitors” (Bioorg Med Chem Lett, 2005).

Columns and labels:
[1] = target: T1, Cholesteryl ester transfer protein (Homo sapiens, UniProt P11597); assay: Inhibitory concentration against Cholesterol ester transfer protein (CETP) in CETP fluorescence assay
T1 sequence (P11597 whole entry): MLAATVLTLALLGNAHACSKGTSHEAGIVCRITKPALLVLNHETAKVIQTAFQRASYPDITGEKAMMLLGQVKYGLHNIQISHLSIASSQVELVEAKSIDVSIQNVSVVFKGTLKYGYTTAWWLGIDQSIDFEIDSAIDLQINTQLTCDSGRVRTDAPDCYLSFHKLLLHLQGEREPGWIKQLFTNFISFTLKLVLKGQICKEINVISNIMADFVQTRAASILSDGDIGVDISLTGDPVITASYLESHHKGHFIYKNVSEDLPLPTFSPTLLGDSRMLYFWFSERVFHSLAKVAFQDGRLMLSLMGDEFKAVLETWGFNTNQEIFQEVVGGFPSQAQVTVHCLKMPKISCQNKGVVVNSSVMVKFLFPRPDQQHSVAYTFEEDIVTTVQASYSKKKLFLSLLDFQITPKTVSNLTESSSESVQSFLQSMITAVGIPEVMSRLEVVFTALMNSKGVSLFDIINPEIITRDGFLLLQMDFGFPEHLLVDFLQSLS

[2] = (§1) Half life period […] determined in rat plasma; assay type: ADME, cell-free
[3] = as §1; assay type: ADME, organism-based

Q: With COc1c(C(O)C(C)C)ccc2c1C(=O)Oc1cc(C)cc(OCCC(C)C)c1O2 (racemic) as the compound, how does the IC50 [1] read?
A: 4000 nM

Q: What does the source list for COc1c([C@@H](O)CC(C)C)ccc2c1C(=O)Oc1cc(C)cc(OC(=O)C3CC4C=CC3C4)c1O2 (some centres not stated)?
A: half-life [2]: < 0.1 h; IC50 [1]: 200 nM

Q: For COc1c([C@@H](O)CC(C)C)ccc2c1C(=O)Oc1cc(C)cc(OS(=O)(=O)C(C)C)c1O2, which IC50 [1] is on record?
A: 700 nM

Q: With COc1c([C@@H](O)CC(C)C)ccc2c1C(=O)Oc1cc(C)cc(OS(=O)(=O)C(F)(F)F)c1O2 as the compound, how does the IC50 [1] read?
A: 10000 nM

Q: With COc1c([C@@H](O)CC(C)C)ccc2c1C(=O)Oc1cc(C)cc(OC(=O)[N+]34CCC(CC3)C4)c1O2 as the compound, how does the half-life [3] read?
A: 3.9 h

Q: What about the IC50 [1] of the same compound?
A: 200 nM

Q: For COc1c([C@@H](O)CC(C)(C)C)ccc2c1C(=O)Oc1c(Cl)c(C)c(Br)c(OC(=O)C3(C)C4CCC3CC4)c1O2 (some centres not stated), which IC50 [1] is on record?
A: 32 nM

Q: With CCCCCS(=O)(=O)Oc1cc(C)cc2c1Oc1ccc([C@@H](O)CC(C)C)c(OC)c1C(=O)O2 as the compound, how does the IC50 [1] read?
A: 4000 nM

Q: Which IC50 [1] does the source give for COc1c([C@@H](O)CC(C)C)ccc2c1C(=O)Oc1cc(C)cc(OC(=O)N3CC4CCC4C3)c1O2 (some centres not stated) here?
A: 400 nM

Q: Which IC50 [1] does the source give for COc1c([C@@H](O)CC(C)C)ccc2c1C(=O)Oc1cc(C)cc(O)c1O2 here?
A: > 20000 nM

Q: Which IC50 [1] does the source give for COc1c(C(O)CC2CC2)ccc2c1C(=O)Oc1cc(C)cc(OCCC(C)C)c1O2 (racemic) here?
A: 10000 nM

Q: For COc1c(C(O)CC2CCCCC2)ccc2c1C(=O)Oc1cc(C)cc(OCCC(C)C)c1O2 (racemic), which IC50 [1] is on record?
A: > 20000 nM

Q: For COc1c([C@@H](O)CC(C)C)ccc2c1C(=O)Oc1cc(C)cc(OC(=O)C(C)(C)C)c1O2, which half-life [3] is on record?
A: < 0.1 h

Q: What about the IC50 [1] of the same compound?
A: 800 nM

Q: What does the source list for COc1c([C@@H](O)CC(C)C)ccc2c1C(=O)Oc1c(Cl)c(C)c(Br)c(OC(=O)C3(C)C4CCC3CC4)c1O2 (some centres not stated)?
A: half-life [2]: > 3 h; IC50 [1]: 60 nM

Q: For COc1c([C@@H](O)CC(C)C)ccc2c1C(=O)Oc1cc(C)cc(OCC3CCCC3)c1O2, which IC50 [1] is on record?
A: 1500 nM

Q: Which half-life [3] does the source give for COc1c([C@@H](O)CC(C)C)ccc2c1C(=O)Oc1cc(C)cc(OC(=O)N(C(C)C)C(C)C)c1O2 here?
A: > 5 h

Q: What about the IC50 [1] of the same compound?
A: 700 nM

Q: Which results are given for COc1c([C@@H](O)CC(C)C)ccc2c1C(=O)Oc1cc(C)cc(OC(=O)C3(C)C4CCC3CC4)c1O2 (some centres not stated)?
A: half-life [2]: 4.2 h; IC50 [1]: 200 nM

Q: For COc1c([C@@H](O)CC(C)C)ccc2c1C(=O)Oc1cc(C)cc(OCc3ccccc3)c1O2, which IC50 [1] is on record?
A: 13000 nM

Q: With COc1c(C(O)CC(C)C)ccc2c1C(=O)Oc1cc(C)cc(OCCC(C)C)c1O2 (racemic) as the compound, how does the IC50 [1] read?
A: 2000 nM

Q: With COc1c(C(O)CC(C)(C)C)ccc2c1C(=O)Oc1cc(C)cc(OCCC(C)C)c1O2 (racemic) as the compound, how does the IC50 [1] read?
A: 1500 nM

Q: For COc1c([C@@H](O)CC(C)C)ccc2c1C(=O)Oc1c(Cl)c(C)c(C)c(OC(=O)C3(C)C4CCC3CC4)c1O2 (some centres not stated), which half-life [2] is on record?
A: > 3 h

Q: What about the IC50 [1] of the same compound?
A: 30 nM

Q: For COc1c(C(O)CCC(C)C)ccc2c1C(=O)Oc1cc(C)cc(OCCC(C)C)c1O2 (racemic), which IC50 [1] is on record?
A: > 20000 nM

Q: With CCN(CC)C(=O)Oc1cc(C)cc2c1Oc1ccc([C@@H](O)CC(C)C)c(OC)c1C(=O)O2 as the compound, how does the IC50 [1] read?
A: 3000 nM

Q: With COc1c([C@@H](O)CC(C)C)ccc2c1C(=O)Oc1cc(C)cc(OC(=O)N3CCCC3)c1O2 as the compound, how does the half-life [3] read?
A: 2.9 h

Q: And the IC50 [1]?
A: 800 nM

Q: Which IC50 [1] does the source give for COc1c([C@@H](O)CC(C)C)ccc2c1C(=O)Oc1cc(C)cc(OC(=O)C3CCCC3)c1O2 here?
A: 600 nM

Q: With COc1c([C@@H](O)CC(C)(C)C)ccc2c1C(=O)Oc1c(Cl)c(C)c(C)c(OC(=O)C3(C)C4CCC3CC4)c1O2 (some centres not stated) as the compound, how does the IC50 [1] read?
A: 30 nM

Q: With COc1c([C@@H](O)CC(C)C)ccc2c1C(=O)Oc1cc(C)cc(OS(=O)(=O)c3c(F)cc(F)cc3F)c1O2 as the compound, how does the IC50 [1] read?
A: 6000 nM

Q: Which IC50 [1] does the source give for CCc1c(C)c(Cl)c2c(c1OC(=O)C1(C)C3CCC1CC3)Oc1ccc([C@@H](O)CC(C)(C)C)c(OC)c1C(=O)O2 (some centres not stated) here?
A: 15 nM

Q: For COc1c([C@@H](O)CC(C)C)ccc2c1C(=O)Oc1cc(C)cc(OC(=O)C3(C)CC4C=CC3C4)c1O2 (some centres not stated), which half-life [2] is on record?
A: 0.64 h

Q: What about the IC50 [1] of the same compound?
A: 200 nM
